Columns and labels:
RmlA = RmlA (Mycobacterium tuberculosis, UniProt P9WH13)
PknD = PknD (Mycobacterium tuberculosis, UniProt P9WI79)
PknH = PknH (Mycobacterium tuberculosis, UniProt P9WI71)
Sequence of PknH (P9WI71 whole entry): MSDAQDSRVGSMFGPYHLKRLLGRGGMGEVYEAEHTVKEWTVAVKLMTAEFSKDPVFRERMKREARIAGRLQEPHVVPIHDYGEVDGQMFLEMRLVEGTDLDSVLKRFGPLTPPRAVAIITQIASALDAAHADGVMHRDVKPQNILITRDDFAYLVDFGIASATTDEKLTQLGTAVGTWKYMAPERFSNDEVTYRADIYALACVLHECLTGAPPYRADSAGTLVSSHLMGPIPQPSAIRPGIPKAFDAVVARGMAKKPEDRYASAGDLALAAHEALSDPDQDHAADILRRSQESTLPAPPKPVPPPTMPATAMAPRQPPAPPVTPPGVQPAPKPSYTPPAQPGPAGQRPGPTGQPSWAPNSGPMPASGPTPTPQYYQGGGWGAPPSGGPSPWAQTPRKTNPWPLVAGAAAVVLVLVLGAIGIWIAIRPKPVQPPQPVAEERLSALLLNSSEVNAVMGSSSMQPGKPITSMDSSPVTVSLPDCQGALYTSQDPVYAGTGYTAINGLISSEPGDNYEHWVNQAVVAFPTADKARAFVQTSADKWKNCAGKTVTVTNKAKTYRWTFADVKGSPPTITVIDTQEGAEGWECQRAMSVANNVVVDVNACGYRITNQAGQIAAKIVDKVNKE

Sequence of RmlA (P9WH13 whole entry): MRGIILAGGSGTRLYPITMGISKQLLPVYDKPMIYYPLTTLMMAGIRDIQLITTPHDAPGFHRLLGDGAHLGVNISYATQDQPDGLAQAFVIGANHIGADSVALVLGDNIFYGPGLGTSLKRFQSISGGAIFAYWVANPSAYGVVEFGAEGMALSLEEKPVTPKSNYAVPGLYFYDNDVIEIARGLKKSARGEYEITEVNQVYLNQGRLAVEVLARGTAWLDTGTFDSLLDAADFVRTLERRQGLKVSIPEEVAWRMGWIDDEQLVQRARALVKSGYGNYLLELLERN
Sequence of PknD (P9WI79 2-664): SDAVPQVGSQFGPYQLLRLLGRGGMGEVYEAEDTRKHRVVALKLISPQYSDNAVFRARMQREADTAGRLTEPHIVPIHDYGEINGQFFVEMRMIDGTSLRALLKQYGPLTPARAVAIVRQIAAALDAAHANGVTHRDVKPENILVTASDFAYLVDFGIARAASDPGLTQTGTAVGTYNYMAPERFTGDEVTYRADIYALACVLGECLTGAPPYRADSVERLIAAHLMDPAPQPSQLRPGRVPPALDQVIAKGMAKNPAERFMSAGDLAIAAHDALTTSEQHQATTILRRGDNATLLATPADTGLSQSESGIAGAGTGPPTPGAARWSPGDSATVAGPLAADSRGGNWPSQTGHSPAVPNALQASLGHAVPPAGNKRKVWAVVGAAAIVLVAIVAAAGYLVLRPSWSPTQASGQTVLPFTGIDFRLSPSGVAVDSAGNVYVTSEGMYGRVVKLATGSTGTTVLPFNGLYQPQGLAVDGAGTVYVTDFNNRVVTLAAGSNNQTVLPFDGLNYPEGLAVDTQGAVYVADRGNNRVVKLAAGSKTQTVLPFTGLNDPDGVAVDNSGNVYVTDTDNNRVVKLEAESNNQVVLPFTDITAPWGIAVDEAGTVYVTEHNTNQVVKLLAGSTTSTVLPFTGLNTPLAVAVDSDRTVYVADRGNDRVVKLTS

Row | Compound | malachite green phosphate assay coupled with pyrophosphatase (RmlA) | autophosphorylation assay (PknD) | autophosphorylation assay (PknH)
1 | O=P(O)(O)O[C@H]1O[C@H](CO)[C@@H](O)[C@H](O)[C@H]1O [D-Glc-1-P] | ability of RmlA to convert D-Glc-1-P and dTTP to D-Glc-dTDP and PPi | – | –
2 | Nc1ncnc2c1ncn2[C@@H]1O[C@H](COP(=O)(O)OP(=O)(O)OP(=O)(O)O)[C@@H](O)[C@H]1O [[γ-^32P]ATP] | – | three kinases, i.e., PknB, PknD, and PknH, demonstrated high kinase activities | three kinases, i.e., PknB, PknD, and PknH, demonstrated high kinase activities
3 | Cc1cn([C@H]2C[C@H](O)[C@@H](COP(=O)(O)OP(=O)(O)OP(=O)(O)O)O2)c(=O)[nH]c1=O [dTTP] | ability of RmlA to convert D-Glc-1-P and dTTP to D-Glc-dTDP and PPi | – | –
